Source: patent publication US11219603B2, “Stable dosage form of etidronate-cytarabine conjugate, and use thereof” (MAXWELL BIOTECH GROUP LTD., priority 2015, dated 2022)

Experiments:
Assay type in all cases: physicochemical
[1] = Thermal behaviour of solutions for lyophilization (DSC); settings: for Thermal effect (event), in words: wrapped cell reads 'Tgt/endothermicity before alloy expansion'
Source text: The thermal properties of the solutions provided for lyophilization were investigated. Differential Scanning calorimetry (DSC) was used to identify the lowest possible transient temperature in the solution throughout the entire lyophilization process, including freezing and dehydration. For the solutions of most pharmaceutical products, this parameter is represented by the glass transition temperature or “Tgt”. All components and their amounts in the solution contribute to the final value of Tgt. This temperature is usually several degrees below the temperature at which the sintered material can crumble during the lyophilization process (collapse temperature, Tc). Without determining the collapse temperature by such methods as cryomicroscopy, the glass transition temperature can be used to select the primary drying temperature. Until the primary drying is completed, the initial drying temperature should be set in such a manner that there are no vials for which the glass transition temperature has been exceeded (or Tc, if known). Otherwise, the structure of the sintered material may get broken. On the one hand, the lyophilization temperature should be close to Tgt, so that the process proceeds efficiently, and on the other hand, it cannot exceed Tgt due to process requirements and qualitative product parameters. Thus, the values of collapse and glass transition temperature are important parameters for calculating safe upper temperature limits, which can be used for lyophilization.
Based on the proposed filling of the vials with the drug (100 mg of active ingredient per vial), potential solutions for filling were prepared. The excipients included sterile water for injection (SWFI), 50 mM succinate and tartrate buffers at pH 5, MgCl2, sulfobutylether β-cyclodextrin (SBEβCD), mannitol and dextran 40. In addition, for solutions containing mannitol, a study of the effect of the annealing stage (the lyophilization process stage when the samples are kept at a certain temperature below the freezing point for a certain period of time) on the improvement the crystallinity of the finished product was performed. […]

[2] = Physical and hydrolytic stability of reconstituted lyophilizates in intravenous media; settings: reconstituted lyophilizate, low dose in D5W, 25° C., 6 hours
Protocol: The lyophilized dosage form was evaluated for compatibility with three different media for intravenous administration within 24 hours: sterile water for injection (SWFI), D5W and 0.9% sodium chloride solution. […] The lyophilized dosage form was first dissolved in 5 mL SWFI to the MBC-11 trisodium salt concentration of 20 mg/mL, and then it was placed in glass vials and diluted with each medium for intravenous administration until the infusion doses under study were obtained. The solutions thus obtained were kept at 2-8° C. and 25° C. for 24 hours, and the evaluation of the samples in appearance, content and purity at the points t=0, 2, 4, 6 and 24 hours was performed.
At each control point, solutions for intravenous administration with a high dosage were evaluated in appearance, after which they were diluted to a nominal analytical concentration of 1 mg/mL with a solvent used in the analytical method for evaluating the substance purity. The samples thus obtained were used to determine the purity and content of the active pharmaceutical ingredient.

[3] = Effect of MgCl2 on hydrolysis of MBC-11 in solution (formation of Ara-CMP at 25° C.); settings: Succinate buffer, 25° C.
Protocol: Studies were performed, where magnesium chloride was investigated as a stabilizer against hydrolytic decomposition. MgCl2 was added to solutions of MBC-11 conjugate in water, tartrate buffer (50 mmol/L, pH 5) and succinate buffer (50 mmol/L, pH 5). The following molar ratios of MgCl2 to MBC-11 were used: (1:2), (1:1), (2:1) and higher (˜12:1). […]

[4] = SWFI, MBC-11 25 mg/mL, MgCl2 43.25 mmol/L, Mannitol 25 mg/mL, Annealing at −20° C.
[5] = SWFI, MBC-11 25 mg/mL, MgCl2 43.25 mmol/L, Mannitol 25 mg/mL, Annealing at −24° C.
[6] = SWFI, MBC-11 25 mg/mL, MgCl2 43.25 mmol/L, pH 4.59
[7] = SWFI, MBC-11 50 mg/mL, MgCl2 86.5 mmol/L, pH 4.52
[8] = Succinate buffer, MBC-11 25 mg/mL, MgCl2 86.5 mmol/L, pH 4.52
[9] = Tartrate buffer, MBC-11 25 mg/mL, MgCl2 86.5 mmol/L, pH 4.48

## CC(O)(P(=O)(O)O)P(=O)(O)OP(=O)(O)OC[C@H]1O[C@@H](n2ccc(N)nc2=O)[C@@H](O)[C@@H]1O (some centres unmarked) [MBC-11]
[1]; SWFI, MBC-11 25 mg/mL, MgCl2 43.25 mmol/L, Dextran-40 5%
  Thermal effect (event): Tgt: −21 °C (Tgt)
[1]; SWFI, MBC-11 25 mg/mL, MgCl2 43.25 mmol/L, Mannitol 25 mg/mL
  Thermal effect (event): possible crystallization: at −27 °C
[1]; [4]
  Thermal effect (event): crystallization after temperature processing: None
  Thermal effect (event): specific endothermicity: −22 °C
[1]; [5]
  Thermal effect (event): crystallization after annealing: None
  Thermal effect (event): weak endothermicity: −22 °C
[1]; [6]
  Thermal effect (event): Tgt: −22 °C (Tgt)
  Thermal effect (event): endotherm: −21 °C
[1]; SWFI, MBC-11 25 mg/mL, MgCl2 86.5 mmol/L, Dextran-40 5%
  Thermal effect (event): Tgt: −27 °C (Tgt)
[1]; SWFI, MBC-11 25 mg/mL, MgCl2 86.5 mmol/L, Mannitol 25 mg/mL
  Thermal effect (event), in words: Tgt/endothermicity
[1]; SWFI, MBC-11 25 mg/mL, MgCl2 86.5 mmol/L, pH 4.35
  Thermal effect (event): endothermicity: −26 °C
[1]; SWFI, MBC-11 50 mg/mL, 20% SBEβCD
  Thermal effect (event): Tgt: −26 °C (Tgt)
[1]; SWFI, MBC-11 50 mg/mL, MgCl2 86.5 mmol/L, Dextran-40 5%
  Thermal effect (event): Tgt: −24 °C (Tgt)
[1]; SWFI, MBC-11 50 mg/mL, MgCl2 86.5 mmol/L, Mannitol 25 mg/mL
  Thermal effect (event), in words: Tgt/endothermicity
[1]; [7]
  Thermal effect (event): Tgt: −34 °C (Tgt)
  Thermal effect (event): endothermicity: −21 °C
[1]; SWFI, MBC-11 50 mg/mL, MgCl2 173 mmol/L, Dextran-40 5%
  Thermal effect (event): Tgt: −36 °C (Tgt)
[1]; SWFI, MBC-11 50 mg/mL, MgCl2 173 mmol/L, Mannitol 25 mg/mL
  Thermal effect (event), in words: Tgt/endothermicity
[1]; SWFI, MBC-11 50 mg/mL, MgCl2 173 mmol/L, pH 4.23
  Thermal effect (event): endothermicity: −26 °C
[1]; SWFI, MBC-11 50 mg/mL, no excipient, pH 5.2
  Thermal effect (event): Tgt: −21 °C (Tgt)
[1]; SWFI, MBC-11 100 mg/mL, MgCl2 173 mmol/L
  Thermal effect (event): endothermicity: −22 °C
[1]; SWFI, MBC-11 100 mg/mL, MgCl2 173 mmol/L, Dextran-40 5%
  Thermal effect (event): Tgt: −29 °C (Tgt)
[1]; SWFI, MBC-11 100 mg/mL, MgCl2 350 mmol/L
  Thermal effect (event): endothermicity: −26 °C
[1]; SWFI, MBC-11 100 mg/mL, no excipient, pH 5.4
  Thermal effect (event): Tgt: −21 °C (Tgt)
[1]; Succinate buffer, MBC-11 25 mg/mL, MgCl2 86.5 mmol/L, Dextran-40 5%
  Thermal effect (event): Tgt: −30 °C (Tgt)
[1]; Succinate buffer, MBC-11 25 mg/mL, MgCl2 86.5 mmol/L, Mannitol 25 mg/mL
  Thermal effect (event), in words: Tgt/endothermicity
[1]; [8]
  Thermal effect (event): crystallization: −34 °C
  Thermal effect (event): endothermicity: −26 °C
[1]; Tartrate buffer, MBC-11 25 mg/mL, MgCl2 86.5 mmol/L, Dextran-40 5%
  Thermal effect (event): Tgt: −26 °C (Tgt)
[1]; Tartrate buffer, MBC-11 25 mg/mL, MgCl2 86.5 mmol/L, Mannitol 25 mg/mL
  Thermal effect (event): Tgt: −40 °C (Tgt)
[1]; [9]
  Thermal effect (event): Tgt: −40 °C (Tgt)
  Thermal effect (event): crystallization: −30 °C
  Thermal effect (event): endothermicity: −22 °C
[2]
  increase in the Ara-CMP content: 0.5%
[3]; MgCl2 0.87 mmol/L, MgCl2:MBC-11 1:2, t = 0 h
  Content of Ara-CMP (%): 2.6%
[3]; MgCl2 0.87 mmol/L, MgCl2:MBC-11 1:2, t = 4 h
  Content of Ara-CMP (%): 3.5%
[3]; MgCl2 0.87 mmol/L, MgCl2:MBC-11 1:2, t = 8 h
  Content of Ara-CMP (%): 4.4%
[3]; MgCl2 0.87 mmol/L, MgCl2:MBC-11 1:2, t = 24 h
  Content of Ara-CMP (%): 7.9%
[3]; MgCl2 1.73 mmol/L, MgCl2:MBC-11 1:1, t = 0 h
  Content of Ara-CMP (%): 2.5%
[3]; MgCl2 1.73 mmol/L, MgCl2:MBC-11 1:1, t = 4 h
  Content of Ara-CMP (%): 3.1%
[3]; MgCl2 1.73 mmol/L, MgCl2:MBC-11 1:1, t = 8 h
  Content of Ara-CMP (%): 3.7%
[3]; MgCl2 1.73 mmol/L, MgCl2:MBC-11 1:1, t = 24 h
  Content of Ara-CMP (%): 5.6%
[3]; MgCl2 3.5 mmol/L, MgCl2:MBC-11 2:1, t = 0 h
  Content of Ara-CMP (%): 2.6%
[3]; MgCl2 3.5 mmol/L, MgCl2:MBC-11 2:1, t = 4 h
  Content of Ara-CMP (%): 3.1%
[3]; MgCl2 3.5 mmol/L, MgCl2:MBC-11 2:1, t = 8 h
  Content of Ara-CMP (%): 3.7%
[3]; MgCl2 3.5 mmol/L, MgCl2:MBC-11 2:1, t = 24 h
  Content of Ara-CMP (%): 5.8%
[3]; MgCl2 20 mmol/L, MgCl2:MBC-11 ~12:1, t = 0 h
  Content of Ara-CMP (%): 2.5%
